Source: EP0133550B1, “Process for producing arphamenine in high yield” (MICROBIAL CHEMISTRY RESEARCH FOUNDATION, priority 1983, dated 1985)

Target: T1, aminopeptidase B (Rattus norvegicus, UniProt O09175)
T1 sequence (O09175 1-650): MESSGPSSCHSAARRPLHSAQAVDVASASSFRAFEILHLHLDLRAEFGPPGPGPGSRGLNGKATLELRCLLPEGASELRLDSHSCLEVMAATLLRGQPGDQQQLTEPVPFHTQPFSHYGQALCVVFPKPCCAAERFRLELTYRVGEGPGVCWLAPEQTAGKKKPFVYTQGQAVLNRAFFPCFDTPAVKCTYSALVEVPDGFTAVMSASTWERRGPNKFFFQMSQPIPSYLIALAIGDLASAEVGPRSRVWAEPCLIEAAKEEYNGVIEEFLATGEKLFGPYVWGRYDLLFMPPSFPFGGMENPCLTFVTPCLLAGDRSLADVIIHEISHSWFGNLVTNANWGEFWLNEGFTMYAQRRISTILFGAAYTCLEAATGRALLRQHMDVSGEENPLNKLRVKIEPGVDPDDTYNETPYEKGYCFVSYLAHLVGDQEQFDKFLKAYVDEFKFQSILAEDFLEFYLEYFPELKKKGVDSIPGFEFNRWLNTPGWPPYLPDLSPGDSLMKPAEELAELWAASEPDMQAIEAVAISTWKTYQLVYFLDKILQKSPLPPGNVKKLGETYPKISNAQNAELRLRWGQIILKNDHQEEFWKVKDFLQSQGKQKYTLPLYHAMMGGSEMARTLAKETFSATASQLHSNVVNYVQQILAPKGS
Test: Inhibition of aminopeptidase B (improved method of Hoppusu et al., arginine-ß-naphthylamide substrate, absorbance at 525 nm)
Assay type: biochemical
Settings: 0.002 M arginine-ß-naphthylamide, pH 7.0, 30 minutes at 37°C; read-out: IC50 (concentration which inhibited 50% of aminopeptidase B activity) (converted)
Procedure: The amount (potency) of arphamenine was determined by an improved method based on the method of Hoppusu et al. (V.K. HOPPUSU, K.K. MAKINEN & G.G. GLENNER, Archieves of Biochemistry and Biophysics 114, 557,1966). In detail, 0.5 ml of 0.1 M tris-hydrochloric acid buffer solution (pH 7.0) and 0.25 ml of a solution containing the specimen were added to 0.25 ml of 0.002 M arginine-ß-naphthylamide. The resulting mixed solution was heated for 3 minutes at 37°C. To the heated solution was added 5 pl of a solution of aminopeptidase B that had been purified by the use of DEAE-cellulose according to the enzyme- purification technique of Hoppusu et al.
The mixture was reacted for 30 minutes at 37°C, followed by adding to the reaction mixture 1 ml of 1.0 M acetic acid buffer solution (pH 4.2) containing Fast Garnet GBC@ (0-aminoazotoluene diazonium salt) in a concentration of 1 mg/ml and the surfactant Tween 20@ in a concentration of 10%.
The resulting mixture was allowed to stand for 15 minutes at room temperature, and measured for adsorbance (a) at 525 nm. Simultaneously, a blank absorbance (b) was obtained using an arphamenine- free buffer solution only. Percent inhibition of aminopeptidase B was calculated from the equation [(b-a)/b] x 100.

**Q.** `N=C(N)NCCCC(N)C(=O)CC(Cc1ccc(O)cc1)C(=O)O` (stereo not shown) [arphamenine B] was tested. Which IC50 did it give?
**A.** 5.95 nM
